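Interpolation was linear, between the two tested concentrations surrounding the appropriate level; five concentrations were tested over 48 hours in 96-well plates. At the GI50, growth is halved. TGI: total growth inhibition.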
Experiments:
Assay in all cases: NCI-60 cell line screen, 48 h
NCI-H522 lung = system: NCI-H522 lung
HCT-116 colon = system: HCT-116 colon
NCI/ADR-RES ovarian = system: NCI/ADR-RES ovarian
NCI-H460 lung = system: NCI-H460 lung
RPMI-8226 leukemia = system: RPMI-8226 leukemia
HCT-15 colon = system: HCT-15 colon
HL-60(TB) leukemia = system: HL-60(TB) leukemia
MALME-3M melanoma = system: MALME-3M melanoma
TK-10 renal = system: TK-10 renal
HCC-2998 colon = system: HCC-2998 colon
MDA-N = system: MDA-N
COLO 205 colon = system: COLO 205 colon
OVCAR-4 ovarian = system: OVCAR-4 ovarian
786-0 renal = system: 786-0 renal
LOX IMVI melanoma = system: LOX IMVI melanoma
A549 NSCLC = system: A549 NSCLC
HOP-92 NSCLC = system: HOP-92 NSCLC
ACHN renal = system: ACHN renal
RXF 393 renal = system: RXF 393 renal
CAKI-1 renal = system: CAKI-1 renal
K-562 leukemia = system: K-562 leukemia
SF-295 CNS = system: SF-295 CNS
SF-539 CNS = system: SF-539 CNS
OVCAR-8 ovarian = system: OVCAR-8 ovarian
SR leukemia = system: SR leukemia
SNB-75 CNS = system: SNB-75 CNS
A498 renal = system: A498 renal
NCI-H23 lung = system: NCI-H23 lung
SK-OV-3 ovarian = system: SK-OV-3 ovarian
SW-620 colon = system: SW-620 colon
SK-MEL-28 melanoma = system: SK-MEL-28 melanoma
MDA-MB-435 = system: MDA-MB-435
NCI-H226 lung = system: NCI-H226 lung
EKVX NSCLC = system: EKVX NSCLC
UO-31 renal = system: UO-31 renal
SK-MEL-5 melanoma = system: SK-MEL-5 melanoma
MCF7 breast = system: MCF7 breast
M14 melanoma = system: M14 melanoma
MOLT-4 leukemia = system: MOLT-4 leukemia
U251 CNS = system: U251 CNS
IGROV1 ovarian = system: IGROV1 ovarian
UACC-257 melanoma = system: UACC-257 melanoma
UACC-62 melanoma = system: UACC-62 melanoma
BT-549 breast = system: BT-549 breast
MDA-MB-231 breast = system: MDA-MB-231 breast
CCRF-CEM leukemia = system: CCRF-CEM leukemia
SNB-19 CNS = system: SNB-19 CNS
OVCAR-5 ovarian = system: OVCAR-5 ovarian
KM12 colon = system: KM12 colon
SN12C renal = system: SN12C renal
DU-145 prostate = system: DU-145 prostate
PC-3 prostate = system: PC-3 prostate
T-47D breast = system: T-47D breast
HOP-62 NSCLC = system: HOP-62 NSCLC
HS 578T breast = system: HS 578T breast
HT29 colon = system: HT29 colon
SF-268 CNS = system: SF-268 CNS
SK-MEL-2 melanoma = system: SK-MEL-2 melanoma
OVCAR-3 ovarian = system: OVCAR-3 ovarian

Cc1ccc(S(=O)(=O)Nn2c(S)c(C#N)c(-c3ccc(N(C)C)cc3)c(C#N)c2=O)cc1
TGI (NCI-H522 lung): 37.8 µM | TGI (HCT-116 colon): 90.5 µM | TGI (NCI/ADR-RES ovarian): 97.2 µM | TGI (NCI-H460 lung): 39.3 µM | TGI (RPMI-8226 leukemia): 91.5 µM | TGI (HCT-15 colon): 56.5 µM | TGI (HL-60(TB) leukemia): 79.6 µM | TGI (MALME-3M melanoma): 80.6 µM | TGI (TK-10 renal): 76.2 µM | TGI (HCC-2998 colon): > 100 µM | TGI (MDA-N): > 100 µM | TGI (COLO 205 colon): 67.8 µM | TGI (OVCAR-4 ovarian): 43.1 µM | TGI (786-0 renal): > 100 µM | TGI (LOX IMVI melanoma): > 100000 nM | TGI (A549 NSCLC): > 100 µM | TGI (HOP-92 NSCLC): > 100 µM | TGI (ACHN renal): > 100 µM | TGI (RXF 393 renal): 88.3 µM | TGI (CAKI-1 renal): > 100 µM | TGI (K-562 leukemia): > 100 µM | TGI (SF-295 CNS): > 100 µM | TGI (SF-539 CNS): 40.7 µM | TGI (OVCAR-8 ovarian): 44.9 µM | TGI (SR leukemia): > 100 µM | TGI (SNB-75 CNS): > 100 µM | TGI (A498 renal): 80.6 µM | TGI (NCI-H23 lung): 61.1 µM | TGI (SK-OV-3 ovarian): > 100 µM | TGI (SW-620 colon): 37.7 µM | TGI (SK-MEL-28 melanoma): 77.4 µM | TGI (MDA-MB-435): 60 µM | TGI (NCI-H226 lung): 34.6 µM | TGI (EKVX NSCLC): > 100 µM | TGI (UO-31 renal): 44.8 µM | TGI (SK-MEL-5 melanoma): 45.3 µM | TGI (MCF7 breast): > 100 µM | TGI (M14 melanoma): > 100000 nM | TGI (MOLT-4 leukemia): > 100 µM | TGI (U251 CNS): 55.6 µM | TGI (IGROV1 ovarian): 38.5 µM | TGI (UACC-257 melanoma): > 100 µM | TGI (UACC-62 melanoma): > 100 µM | TGI (BT-549 breast): 67.3 µM | TGI (MDA-MB-231 breast): > 100 µM | TGI (CCRF-CEM leukemia): > 100 µM | TGI (SNB-19 CNS): > 100 µM | TGI (OVCAR-5 ovarian): > 100 µM | TGI (KM12 colon): 52.2 µM | TGI (SN12C renal): 68.2 µM | TGI (DU-145 prostate): > 100 µM

N=C1C=C/[N+](=C\C=CCO)C([O-])=N1
GI50 (MDA-N): > 1 mM | TGI (MDA-N): > 1000 µM

CCN(CC)c1ccc(/C=N/NC(=O)c2ccc(S(C)(=O)=O)cc2)c(O)c1
GI50 (NCI-H522 lung): 455 nM | TGI (NCI-H522 lung): > 100 µM | GI50 (HCT-116 colon): 186 nM | TGI (HCT-116 colon): > 100 µM | GI50 (NCI/ADR-RES ovarian): 467 nM | TGI (NCI/ADR-RES ovarian): > 44.4 µM | GI50 (NCI-H460 lung): 179 nM | TGI (NCI-H460 lung): 16 µM | GI50 (RPMI-8226 leukemia): 399 nM | TGI (RPMI-8226 leukemia): > 100 µM | GI50 (HCT-15 colon): 120 nM | TGI (HCT-15 colon): > 100 µM | GI50 (HL-60(TB) leukemia): 288 nM | TGI (HL-60(TB) leukemia): 3.01 µM | GI50 (PC-3 prostate): 409 nM | TGI (PC-3 prostate): > 100 µM | GI50 (MALME-3M melanoma): 491 nM | TGI (MALME-3M melanoma): > 82.4 µM | GI50 (TK-10 renal): 356 nM | TGI (TK-10 renal): > 100 µM | GI50 (T-47D breast): 444 nM | TGI (T-47D breast): > 100 µM | GI50 (HCC-2998 colon): 292 nM | TGI (HCC-2998 colon): > 100 µM | GI50 (COLO 205 colon): 297 nM | TGI (COLO 205 colon): > 100 µM | GI50 (OVCAR-4 ovarian): 139 nM | TGI (OVCAR-4 ovarian): > 80.3 µM | GI50 (HOP-62 NSCLC): 156 nM | TGI (HOP-62 NSCLC): > 57.9 µM | GI50 (786-0 renal): 246 nM | TGI (786-0 renal): > 100 µM | GI50 (LOX IMVI melanoma): 150 nM | TGI (LOX IMVI melanoma): 2760 nM | GI50 (A549 NSCLC): 542 nM | TGI (A549 NSCLC): > 100 µM | GI50 (HOP-92 NSCLC): 439 nM | TGI (HOP-92 NSCLC): 32.9 µM | GI50 (ACHN renal): 179 nM | TGI (ACHN renal): > 100 µM | GI50 (RXF 393 renal): 452 nM | TGI (RXF 393 renal): > 62.1 µM | GI50 (CAKI-1 renal): 199 nM | TGI (CAKI-1 renal): > 100 µM | GI50 (HS 578T breast): 6.44 µM | TGI (HS 578T breast): > 100 µM | GI50 (K-562 leukemia): 900 nM | TGI (K-562 leukemia): > 100 µM | GI50 (SF-295 CNS): 259 nM | TGI (SF-295 CNS): > 100 µM | GI50 (SF-539 CNS): 287 nM | TGI (SF-539 CNS): 12 µM | GI50 (OVCAR-8 ovarian): 320 nM | TGI (OVCAR-8 ovarian): > 69.5 µM | GI50 (SR leukemia): 97.2 nM | TGI (SR leukemia): > 100 µM | GI50 (SNB-75 CNS): 292 nM | TGI (SNB-75 CNS): > 29.3 µM | GI50 (A498 renal): 4.98 µM | TGI (A498 renal): > 100 µM | GI50 (NCI-H23 lung): 537 nM | TGI (NCI-H23 lung): > 100 µM | GI50 (SK-OV-3 ovarian): 251 nM | TGI (SK-OV-3 ovarian): 57.8 µM | GI50 (SW-620 colon): 438 nM | TGI (SW-620 colon): > 100 µM | GI50 (SK-MEL-28 melanoma): 362 nM | TGI (SK-MEL-28 melanoma): > 100 µM | GI50 (MDA-MB-435): 605 nM | TGI (MDA-MB-435): > 100 µM | GI50 (NCI-H226 lung): 174 nM | TGI (NCI-H226 lung): 5.19 µM | GI50 (EKVX NSCLC): 222 nM | TGI (EKVX NSCLC): > 100 µM | GI50 (UO-31 renal): 200 nM | TGI (UO-31 renal): 3.49 µM | GI50 (SK-MEL-5 melanoma): 330 nM | TGI (SK-MEL-5 melanoma): 2.49 µM | GI50 (MCF7 breast): 300 nM | TGI (MCF7 breast): > 100 µM | GI50 (M14 melanoma): 210 nM | TGI (M14 melanoma): 2450 nM | GI50 (MOLT-4 leukemia): 253 nM | TGI (MOLT-4 leukemia): > 100 µM | GI50 (U251 CNS): 238 nM | TGI (U251 CNS): > 41 µM | GI50 (IGROV1 ovarian): 292 nM | TGI (IGROV1 ovarian): > 100 µM | GI50 (HT29 colon): 469 nM | TGI (HT29 colon): > 100 µM | GI50 (UACC-257 melanoma): 340 nM | TGI (UACC-257 melanoma): 5.6 µM | GI50 (UACC-62 melanoma): 306 nM | TGI (UACC-62 melanoma): 15.1 µM | GI50 (BT-549 breast): 596 nM | TGI (BT-549 breast): > 39.9 µM | GI50 (MDA-MB-231 breast): 347 nM | TGI (MDA-MB-231 breast): > 100 µM | GI50 (CCRF-CEM leukemia): 82.5 nM | TGI (CCRF-CEM leukemia): > 100 µM | GI50 (SF-268 CNS): 167 nM | TGI (SF-268 CNS): > 100 µM | GI50 (SNB-19 CNS): 560 nM | TGI (SNB-19 CNS): > 100 µM | GI50 (OVCAR-5 ovarian): 2860 nM | TGI (OVCAR-5 ovarian): > 100 µM | GI50 (KM12 colon): 418 nM | TGI (KM12 colon): > 100 µM | GI50 (SK-MEL-2 melanoma): 777 nM | TGI (SK-MEL-2 melanoma): > 100 µM | GI50 (OVCAR-3 ovarian): 177 nM | TGI (OVCAR-3 ovarian): > 100 µM | GI50 (SN12C renal): 415 nM | TGI (SN12C renal): > 100 µM | GI50 (DU-145 prostate): 308 nM | TGI (DU-145 prostate): > 100 µM

Reference: PubChem BioAssay (NCI)
